# Source: ChEMBL document CHEMBL1147120, “Chemical constituents of malagasy Liverworts. 6. A myltaylane caffeate with nitric oxide inhibitory activity from Bazzania nitida” (J Nat Prod, 2007)
# Tested on: RAW
# Experiment: Inhibition of LPS-induced NO production in RAW 264.7 cells
# Type: functional, cell-based
# Details: Mus musculus
smiles,measurement,value
C=C1C[C@]23C[C@H](OC(=O)/C=C/c4ccc(O)c(O)c4)[C@H]1[C@@]2(C)CCCC3(C)C,IC50,6.3 µM
